Measured values from patent publication US20090324489A1 (priority 2005, published 2009).
Like-named read-outs stand apart in the source and are kept apart here.

Key:
HeLa cells = assay: Anti-proliferative assay, HeLa cells; type: cell-based
A549 cells = assay: Anti-proliferative SRB assay, A549 cells; type: cell-based
Method: A549 cells were grown in RPMI-1640 supplemented with 10% FBS, 100 units/mL of penicillin, 100 μg/mL of streptomycin, and 2 mM L-glutamine. All cells were grown in a humidified atmosphere at 37° C. and 5% CO2. Growth inhibition was evaluated by the SRB assay^22. Cells were seeded in 96-well plates at 5000 cells per well in 100 μL of media and incubated at 37° C. for 24 hours. Cells were then treated with 0-100 μM of compounds at 37° C. for 48 hours. Cells were fixed with 50 μL cold 50% TCA, incubated at 4° C. for 1 hour, and washed 5 times with tap water. The 96-well plates were allowed to air dry and 100 μL 0.4% sulforhodamine B (SRB) in 1% acetic acid was added to each well. After 10 minutes, the unbound SRB was washed away with 1% acetic acid and the plates were dried. Protein-bound dye was solubilized by addition of 200 μL 10 mM Tris buffer and subsequent shaking at RT for 10 minutes. The absorbance of each well was measured at 490 nm by a plate reader. Percent cell survival was calculated for each concentration by the ratio of the measured absorbance to the absorbance of the untreated cells. Curve fitting was performed using Prism 4.0a software. IC50 is the 50% inhibition of cell mass without subtraction of the resistant cell population.

physchem = type: physicochemical; conditions: for half-life / half-life at 1.5 μM: buffer
Method: The stability of compounds of the invention was obtained by the following method. […] The solutions were incubated at 37° C.
Stability data was fit to equation 1, which illustrates our treatment of the data for 2a ([…]) as shown in FIG. 2 with first order decay constants (kFOD) given in Table 1.

[1] = cited from earlier work
PI3K = assay: Inhibition of PI3K enzyme activity (32P ATP lipid phosphorylation, TLC); type: biochemical; conditions: compounds incubated 3 hours at 37° C. in PBS pH 6.8, then 30 minute PI3K incubation; read-out: Bioassay: PI3K IC50
Method: We incubated compounds for three hours at 37° C. in PBS, pH 6.8, followed a 30 minute incubation for PI3K activity using the assay system previously described which involves lipid phosphorylation by ^32P labeled ATP and thin layer chromatography, (see Yuan et al., Bioconjug. Chem. 16:669 (2005)).

[2] = Formation of wortmannin from WmC20 conjugates monitored by HPLC; conditions: PBS pH 6.8, 37° C.
Method: The solutions were incubated in water bath at 37° C. and were analyzed at different time points with HPLC by injecting the solution (10 μL) together with 1 μL internal standard solution (containing 1 μg methyl 4-hydroxybezoate). The initial time point (0 hr) was taken before putting the tube in the water bath. HPLC gradients were adjusted to produce baseline separations. Before the injection, the samples were vortexed briefly and then spun down. Data using this method appear in FIG. 6.
Compounds (1.8 mg) and 4b (1.3 mg) (examples were weighted into the 1.5 mL tubes and dissolved in PBS buffer (pH 6.8, 400 μL). The solutions were incubated at 37° C. At different time point 20 μL solution was mixed with 1 μL internal standard solution in DMSO (containing 1 μg methyl 4-hydroxybenzoate) and analyzed by HPLC. The initial time point (0 hr) was taken before putting the tube in the water bath. Before the injection, the samples were vortexed briefly and then spun down.
The following HPLC methods were employed. HPLC (Varian Prostar 210 with a variable wavelength PDA 330 detector) employed reverse phase C18 columns (VYDAC, Cat.#: 218TP 1022 for synthesis; Varian, Cat. #: R0086200C5 for analysis) with water (Millipore, containing 0.1% trifloroacetic acid,) (buffer A) and acetonitrile (containing 20% buffer A) (buffer B) as elution buffer. System 1: buffer A/buffer B (80:20) isocratic for 5 minutes, linear gradient to buffer A/buffer B (20:80) over 40 minutes, then the gradient back to 80:20 in 5 minutes and isocratic for 5 minutes, flow: 4.9 ml/min, λmax: 418 nm (used for purification of 2a); System 2: buffer A/buffer B (80:20) isocratic for 5 minutes, linear gradient to buffer A (buffer B (20:80) over 25 minutes and then isocratic for 5 minutes, then the gradient back to 80:20 in 5 minutes and isocratic for 5 minutes, flow: 6.0 mi/min, λmax: 408 nm (used for purification of 2b); System 3: buffer A/buffer B (70:30) linear gradient to buffer A/buffer B (20:80) over 15 minutes, then gradient back to 70:30 in 3 minutes and isocratic for another 5 minutes, flow: 1.0 ml/min, λmax: 258 nm (System 4: buffer A/buffer B (99:1) linear gradient to buffer A/buffer B (40:60) over 46 minutes, then gradient back to […] in 5 minutes and isocratic for another 5 minutes, flow: 1.0 ml/min, λmax: 250 nm).

[3] = Homo sapiens, A549, 48 hours treatment
[4] = RPM tissue culture medium, data from Holleran et al.

Molecule | half-life (physchem; pH 6.8, Half Life) [h] | IC50 (HeLa cells; Homo sapiens, HeLa) [µM] | IC50 (A549 cells; [3]) [µM] | IC50 (PI3K) [µM] | K1 (wortmannin generation, fit to Equation 2) [2] | K2 (wortmannin degradation, fit to Equation 2) [2] | other results
WmC20-N(H)-hexanoate-dextran [Example 18] |  |  |  |  |  |  | IC50 (HeLa cells): 58 ± 0.6 µM; IC50 (A549 cells; 48 hours treatment): 64.7 ± 1.2 µM
COCC1OC(=O)C(=CN(C)CCCCCC(=O)O)C2=C(O)C(=O)C3=C(C(OC(C)=O)CC4(C)C(=O)CCC34)C21C (centres unmarked) [Example 1, wortmannin C20-N(Me)-hexanoic acid] | 8.7 | 10.9 ± 0.2 | 3.11 ± 0.17 |  |  |  | half-life at 1.5 μM (physchem; pH 6.8, Half Life): 10.7 h
COC[C@H]1OC(=O)c2coc3c2[C@@]1(C)C1=C(C3=O)[C@@H]2CCC(=O)[C@@]2(C)C[C@H]1OC(C)=O [wortmannin] | 57.8 | 41 ± 0.9 | 21.1 ± 0.5 |  |  |  | KFOD ([1]; MEM tissue culture medium, data from Holleran et al.): 5.04 h⁻¹; half-lives in RPM and MEM tissue culture media ([1]; RPM and MEM, Holleran et al.): about 10 minutes; Half Life [1, 4]: 0.172 h; KFOD [1, 4]: 4.02 h⁻¹; half-life in tissue culture media ([1]; tissue culture media, Holleran et al.): 8 to 13 min; KFOD (95% confidence intervals) (physchem; PBS pH 6.8, 37° C.): 0.012 (0.0080-0.016) hr^−1; KFOD (95% confidence intervals) (physchem; PBS, 0.065 mM BSA, 37° C.): 0.18 (0.16-0.20) hr^−1; KFOD (95% confidence intervals) (physchem; PBS, 10 mM NAcLys, 37° C.): 0.30 (0.23-0.38) hr^−1; KFOD (95% confidence intervals) (physchem; PBS, 10 mM Proline, 37° C.): 1.87 (0.62-3.13) hr^−1; half-life at 2.26 mM (physchem; pH 6.8, Half Life): 3.85 h
WmC20-NH-hexanoate-IgG [Example 15] |  |  |  | > 1 |  |  | 
WmC20-N(Me)-hexanoate-IgG [Example 14] |  |  |  | 0.13 | 0.024 (0.013-0.034) hr^−1 | 0.282 (0.166-0.398) hr^−1 | 
WmC2O-N(Me)-hexanoate-Bead [Example 16] |  |  |  |  | 0.308 (0.124-0.492) hr^−1 | 0.148 (0.076-0.220) hr^−1 | 
Wm-N(Me)Hexanoate-BSA conjugate [Example 12] |  |  |  | 0.0148 ± 0.0011 | 0.190 (0.128-0.253) hr^−1 | 0.905 (0.707-1.103) hr^−1 | 
WmC20-NH-hexanoate-BSA conjugate [Example 13] |  |  |  | > 1 |  |  | 
WmC20-N(Me)-hexanoate-dextran [Example 17] |  |  |  |  |  |  | IC50 (HeLa cells): 13.3 ± 0.4 µM; IC50 (A549 cells; 48 hours treatment): 3.96 ± 0.23 µM
COCC1OC(=O)C(=CNCCCCCC(=O)O)C2=C(O)C(=O)C3=C(C(OC(C)=O)CC4(C)C(=O)CCC34)C21C (centres unmarked) [Example 2, wortmannin C20-NH-hexanoic acid] | 131 | 63.8 ± 0.6 | 45.8 ± 0.3 |  |  |  | half-life at 1.5 μM (physchem; pH 6.8, Half Life): 223 h
